{
  "source": "paper PMC6063804",
  "about": "(EJNMMI Research, 2018)",
  "key": {"[1]": {"assay_type": "in vivo, human", "conditions": "for activity that could not be extracted / mean parent fraction: plasma; for mean parent fraction: all 20 scans", "experimental": "All subjects received a radial artery cannula for continuous and manual arterial sampling. For each scan, an arterial input function was obtained using an on-line blood sampler (Veenstra Instruments, Joure, The Netherlands) with a withdrawal rate of 5 mL · min^−1 during the first 5 min and 2.5 mL · min^−1 from 5 to 60 min post injection (p.i.) in order to stay within blood volume sampling constraints. Continuous blood withdrawal was interrupted briefly to manually collect arterial blood samples (10 mL each) at set timepoints (5, 10, 20, 40, 60, 75, 90, 120 min p.i.). In several subjects, an arterial sample was taken immediately before PET and incubated with [^18F]PK-209 at 37 °C to compare radioactivity recovery fractions throughout the 120 min with extracted fractions of the arterial samples taken during PET. The samples were used to measure blood and plasma radioactivity concentrations, whole blood-to-plasma ratios, and plasma metabolite fractions of [^18F]PK-209. For the latter purpose, samples were analyzed using solid-phase extraction combined with HPLC using off-line radioactivity detection.\nThe final arterial plasma input function was derived using both continuous and discrete arterial blood data. The input function was corrected for plasma to whole blood ratio, metabolites, and time delay. For each scan, two additional plasma input functions were generated to investigate the effect of within-subject and between-subject variability in plasma data. For the within-subject averaged input function, the mean of PET1 and PET2 [^18F]PK-209 parent fractions per subject were used at each of the eight sample timepoints for both scans. For the population-averaged input function, the mean parent fractions for all five subjects in the TRT and ketamine groups (i.e., 10 scans) were taken at each timepoint. The manual arterial blood samples were also used for assessment of the plasma ketamine concentration. The area under the ketamine concentration–time curve was estimated by means of the trapezoidal rule.\nThe absolute percentage TRT variability of kinetic parameters between test and retest scans was calculated using the equation TRT variability = 2 · (ρretest − ρtest)/(ρtest + ρretest) · 100, where ρ is the kinetic parameter of interest. The between-subject coefficient of variation was calculated as the standard deviation divided by the sample mean · 100. […] SUV from 90 to 120 min (SUV90–120) was calculated as the mean of the last three mid-frame SUV values."}, "ion channel of NMDA-R [2]": {"biological_target": "ion channel of NMDA-R", "parameters": "method as in PMID 25648682", "conditions": "preclinical; read-out: apparent affinity against [^3H]MK-801 (Ki); cited from earlier work"}, "ion channel of NMDA-R [3]": {"tested_on": "ion channel of NMDA-R", "parameters": "method as in PMID 25451213", "conditions": "cited from earlier work"}},
  "note": "pK i: −log10 of the molar value. Where “and” joins values, the source holds several entries; their conditions need not be identical. Identical values can stand only once. Like-named read-outs stand apart in the source and are kept apart here.",
  "data": [
    {"smiles": "CSc1ccc(Cl)c(NC(=N)N(C)c2cccc(OC[18F])c2)c1", "note": "[[^18F]PK-209, 3-(2-chloro-5-(methylthio)phenyl)-1-(3-([^18F]fluoromethoxy)phenyl)-1-methylguanidine]", "values": [
      {"measurement": "difference in mean blood-to-plasma ratios between test–retest and between baseline–ketamine scans", "setting": "[1]; all eight measured timepoints", "value": "< 3", "unit": "%"},
      {"measurement": "peak radioactivity concentration in plasma, mean SUV", "setting": "[1]; arterial plasma", "value": "17.4 ± 2.8"},
      {"measurement": "plasma radioactivity as % of the peak", "setting": "[1]; at 3 min", "value": "~ 7%"},
      {"measurement": "fractional recovery of radioactivity from plasma", "setting": "[1]; declined over time, stabilizing", "value": "approximately 45%"},
      {"measurement": "activity that could not be extracted", "setting": "[1]; 5 min p.i.", "value": "15 ± 3", "unit": "%"},
      {"measurement": "activity that could not be extracted", "setting": "[1]; 120 min p.i.", "value": "54 ± 4", "unit": "%"},
      {"measurement": "mean parent fraction", "setting": "[1]; 5 min p.i.", "value": "77 ± 7", "unit": "%"},
      {"measurement": "mean parent fraction", "setting": "[1]; 10 min p.i.", "value": "57 ± 9% and 57%"},
      {"measurement": "mean parent fraction", "setting": "[1]; 20 min p.i.", "value": "34 ± 5% and 34%"},
      {"measurement": "mean parent fraction", "setting": "[1]; 60 min p.i.", "value": "19 ± 3", "unit": "%"},
      {"measurement": "mean parent fraction", "setting": "[1]; 120 min p.i.", "value": "14 ± 3", "unit": "%"},
      {"measurement": "parent fractions in baseline scans lower than the test–retest group", "setting": "[1]; subjects 6 to 10, average", "value": 16, "unit": "%"},
      {"measurement": "pK i", "setting": "ion channel of NMDA-R [2]", "value": 7.74},
      {"measurement": "selectivity for the ion channel of NMDA-R over other targets", "setting": "ion channel of NMDA-R [3]", "value": "high selectivity"}
    ]}
  ]
}
